Test results published in patent US20230303599A1, “PRODRUGS OF PHOSPHONAMIDE NUCLEOTIDE ANALOGUES AND THEIR PHARMACEUTICAL USE” (priority 2020, published 2023).
≈ marks a conversion by molar mass, not a printed value.

Key:
[1] = Cytotoxicity assay in MT-4 cells; type: cell-based; conditions: human, uninfected MT-4 cells, average of at least two independent experiments, read-out: MT4 CC50
Protocol: Compounds were tested in a high-throughput 384-well assay format for their ability to inhibit the replication of HIV-1 (IIIB) in MT-4 cells. Compounds were serially diluted (1:3) in DMSO on 384-well polypropylene plates and further diluted 200-fold into complete RPMI media (10% FBS, 1% P/S) using the Biotek Micro Flow and Labcyte ECHO acoustic dispenser. Each plate contained up to 8 test compounds, with negative (no drug) and positive (5 μM AZT) controls. MT-4 cells were pre-treated with 10 μL of either RPMI (mock-infected) or a fresh 1:250 dilution of HIV-1 IIIB concentrated virus stock. Infected and uninfected MT-4 cells were further diluted in complete RPMI media and added to each plate using a Micro Flow dispenser. After 5 days incubation in a humidified and temperature-controlled incubator (37° C.), Cell Titer Glo (Promega) was added to the assay plates and chemiluminescence read using an Envision plate-reader. EC50 values were defined as the compound concentration that causes a 50% decrease in luminescence signal and were calculated using a sigmoidal dose-response model to generate curve fits and are shown in Table 1.
Example 105: Cytotoxicity Assay in MT-4 Cells
Assays were performed as described in Example 104 except uninfected MT-4 cells were added to each well containing test compound. In addition, 10 μM puromycin was added to the last column of each assay plate to assess a base level of cytotoxicity.

[2] = Cytotoxicity assay in primary human hepatocytes (PHHs); type: cell-based; conditions: HBV-infected primary human hepatocytes, HBV-infected PHH, Cell Titer Glo, average of at least two independent experiments
Protocol: Example 107: Cytotoxicity Assay in Primary Human Hepatocytes (PHHs)
The HBV-infected primary human hepatocytes are seeded (20K cells/well in 80 uL of Media) in 384well collagen coated plates pre-spotted with compounds. After 5 days, 40 ul of cell supernatant is removed to quantify HBV DNA levels as described in Example 106. Then, 40 ul Cell Titer Glo Reagent (Promega Catalog Number: G7572) is added to the remaining cells and luminescence is measured on the EnVision microplate reader.

[3] = Kinetic solubility analysis; type: physicochemical; conditions: 1× PBS, 24.2 °C, aqueous buffer, kinetic from dmso stock; pH 7.4 PBS, 1% DMSO, 24-hour incubation at ambient temperature
Protocol: Example 108: Kinetic Solubility Analysis
Buffer Preparation: 0.1 N HCl: Hydrochloric acid, 0.1 N standardized solution (MP Biomedicals part number 199569). 1×PBS, pH 7.4: Phosphate Buffered Saline (PBS) solution 10× (Fisher Bioreagent part number BP399-500) 50 mL was added to approximately 450 mL HPLC grade H2O. The volume of the solution was then adjusted to 500 mL for a total dilution factor of 1:10 and a final PBS concentration of 1×.
The final DMSO concentration was 1.0% (v/v) and maximum theoretical compound concentration is 100 μM (for compound stock concentration of 10 mM). The filter plate was sealed. Following 24-hour incubation at ambient temperature (24.2-27.5° C.), the samples were vacuum filtered and the filtrates were collected in a 96 well polypropylene plate for analysis. The collection plate was sealed for analysis. Filtrates were injected into the Antek 8060 chemiluminescent nitrogen detector for quantification. The results are reported in μM.
The filtrates were quantified with respect to this calibration curve. Each calculated solubility value was corrected for background nitrogen present in the DMSO and in the medium used to prepare the sample. All reported values for compounds containing adjacent nitrogen atoms in a ring structure were increased by approximately 25%.

Compound CCCCCCOC(=O)C(C)(C)NP(=O)(CO[C@H](C)Cn1cnc2c(NC(=O)OCCC)ncnc21)NC(C)(C)C(=O)OCCCCCC [Example 31, Dihexyl 2,2′-(((((1-(6-((propoxycarbonyl)amino)-9H-purin-9-yl)propan-2-yl)oxy)methyl)phosphoryl)bis(azanediyl))(R)-bis(2-methylpropanoate)] has a CC50 at 5 days [1] of 9.01 µM, a CC50 at 5 days [2] greater than 0.1 µM and a solubility kinetic at 24 h [3] of 12 µg/mL (≈ 16.9 µM).
CCCCCOC(=O)C(C)(C)NP(=O)(CO[C@H](C)Cn1cnc2c(N)ncnc21)NC(C)(C)C(=O)OCCCCC [Example 4, Dipentyl 2,2′-(((((1-(6-amino-9H-purin-9-yl)propan-2-yl)oxy)methyl)phosphoryl)bis(azanediyl))(R)-bis(2-methylpropanoate)] showed a CC50 at 5 days [1] of 8.42 µM, a CC50 at 5 days [2] greater than 0.1 µM and a solubility kinetic at 24 h [3] of 53 µg/mL (≈ 88.7 µM).
CCCCCCOC(=O)C(C)(C)NP(=O)(CO[C@H](C)Cn1cnc2c(N)ncnc21)NC(C)(C)C(=O)OCC12CC(C1)C2 (stereo partly drawn) [Example 77, Bicyclo[1.1.1]pentan-1-ylmethyl 2-((((((R)-1-(6-amino-9H-purin-9-yl)propan-2-yl)oxy)methyl)((1-(hexyloxy)-2-methyl-1-oxopropan-2-yl)amino)phosphoryl)amino)-2-methylpropanoate] showed a CC50 at 5 days [1] greater than 50 µM, a CC50 at 5 days [2] greater than 0.1 µM and a solubility kinetic at 24 h [3] of 57 µg/mL (≈ 91.7 µM).
Compound CCCCCCCCCCCC(=O)Nc1ncnc2c1ncn2C[C@@H](C)OCP(=O)(NC(C)(C)C(=O)OCCCCCC)NC(C)(C)C(=O)OCCCCCC [Example 30, Dihexyl 2,2′-(((((1-(6-dodecanamido-9H-purin-9-yl)propan-2-yl)oxy)methyl)phosphoryl)bis(azanediyl))(R)-bis(2-methylpropanoate)] has a CC50 at 5 days [2] greater than 0.1 µM and a solubility kinetic at 24 h [3] of less than 1 µg/mL.
In the case of CCC[C@H]1CC[C@H](OC(=O)C(C)(C)NP(=O)(CO[C@H](C)Cn2cnc3c(N)ncnc32)NC(C)(C)C(=O)O[C@H]2CC[C@H](CCC)CC2)CC1 [Example 27], the CC50 at 5 days [2] is reported as greater than 0.1 µM and the solubility kinetic at 24 h [3] is reported as 1 µg/mL (≈ 1.42 µM).
Compound C[C@H](Cn1cnc2c(N)ncnc21)OCP(=O)(NC(C)(C)C(=O)OCc1ccccc1)NC(C)(C)C(=O)OCc1ccccc1 [Example 3, Dibenzyl 2,2′-(((((1-(6-amino-9H-purin-9-yl)propan-2-yl)oxy)methyl)phosphoryl)bis(azanediyl))(R)-bis(2-methylpropanoate)] has a CC50 at 5 days [1] of 4.46 µM, a CC50 at 5 days [2] greater than 0.1 µM and a solubility kinetic at 24 h [3] of 50 µg/mL (≈ 78.4 µM).
Compound CCCCCCOC(=O)C(CC)(CC)NP(=O)(CO[C@H](C)Cn1cnc2c(N)ncnc21)NC(CC)(CC)C(=O)OCCCCCC [Example 65, Dihexyl 2,2′-(((((1-(6-amino-9H-purin-9-yl)propan-2-yl)oxy)methyl)phosphoryl)bis(azanediyl))(R)-bis(2-ethylbutanoate)] has a CC50 at 5 days [1] of 6.71 µM and a CC50 at 5 days [2] greater than 0.1 µM.
CCCCCCCOC(=O)C(C)(C)NP(=O)(CO[C@H](C)Cn1cnc2c(N)ncnc21)NC(C)(C)C(=O)OCCCCCCC [Example 66, Diheptyl 2,2′-(((((1-(6-amino-9H-purin-9-yl)propan-2-yl)oxy)methyl)phosphoryl)bis(azanediyl))(R)-bis(2-methylpropanoate)] showed a CC50 at 5 days [1] of 4.77 µM and a CC50 at 5 days [2] greater than 0.1 µM.
With C[C@H](Cn1cnc2c(N)ncnc21)OCP(=O)(NC(C)(C)C(=O)OC1CCC2(CCCC2)CC1)NC(C)(C)C(=O)OC1CCC2(CCCC2)CC1 (stereo partly drawn) [Example 61, Di(spiro[4.5]decan-8-yl) 2,2′-(((((1-(6-amino-9H-purin-9-yl)propan-2-yl)oxy)methyl)phosphoryl)bis(azanediyl))(R)-bis(2-methylpropanoate)] the CC50 at 5 days [1] was 6 µM, the CC50 at 5 days [2] was greater than 0.1 µM and the solubility kinetic at 24 h [3] was less than 1 µg/mL.
Work on C[C@H](Cn1cnc2c(N)ncnc21)OCP(=O)(NC(C)(C)C(=O)OCC12CCC(CC1)C2)NC(C)(C)C(=O)OCC12CCC(CC1)C2 [Example 87, Bis(bicyclo[2.2.1]heptan-1-ylmethyl) 2,2′-(((((1-(6-amino-9H-purin-9-yl)propan-2-yl)oxy)methyl)phosphoryl)bis(azanediyl))(R)-bis(2-methylpropanoate)] yielded a CC50 at 5 days [1] of 5.05 µM, a CC50 at 5 days [2] greater than 0.1 µM and a solubility kinetic at 24 h [3] of less than 1 µg/mL.
For CCCCCCOC(=O)C(C)(C)NP(=O)(CO[C@H](C)Cn1cnc2c(NC(=O)OCCOC(=O)c3ccccc3)ncnc21)NC(C)(C)C(=O)OCCCCCC [Example 94, Dihexyl 2,2′-(((((1-(6-(((2-(benzoyloxy)ethoxy)carbonyl)amino)-9H-purin-9-yl)propan-2-yl)oxy)methyl)phosphoryl)bis(azanediyl))(R)-bis(2-methylpropanoate)], the CC50 at 5 days [1] was 8.22 µM, the CC50 at 5 days [2] was greater than 0.1 µM and the solubility kinetic at 24 h [3] was 2 µg/mL (≈ 2.45 µM).
Work on CCCCCCOC(=O)C(C)(C)NP(=O)(CO[C@H](C)Cn1cnc2c(N)ncnc21)NC1(C(=O)OCCCCCC)CCC1 (stereo partly drawn) [Example 18, Hexyl 1-((((((R)-1-(6-amino-9H-purin-9-yl)propan-2-yl)oxy)methyl)((1-(hexyloxy)-2-methyl-1-oxopropan-2-yl)amino)phosphoryl)amino)cyclobutane-1-carboxylate] yielded a CC50 at 5 days [1] of 6.57 µM and a solubility kinetic at 24 h [3] of 22 µg/mL (≈ 34.5 µM).
With CCCCCCOC(=O)C(C)(C)NP(=O)(CO[C@H](C)Cn1cnc2c(NC(=O)OC(C)(C)CC(=O)OCc3oc(=O)oc3C)ncnc21)NC(C)(C)C(=O)OCCCCCC [Example 101, Dihexyl 2,2′-(((((1-(6-((((2-methyl-4-((5-methyl-2-oxo-1,3-dioxol-4-yl)methoxy)-4-oxobutan-2-yl)oxy)carbonyl)amino)-9H-purin-9-yl)propan-2-yl)oxy)methyl)phosphoryl)bis(azanediyl))(R)-bis(2-methylpropanoate)] the CC50 at 5 days [1] was 7.68 µM and the solubility kinetic at 24 h [3] was 23 µg/mL (≈ 26.1 µM).
CC(C)COC(=O)C(C)(C)NP(=O)(CO[C@H](C)Cn1cnc2c(N)ncnc21)NC(C)(C)C(=O)OCC(C)C [Example 35, Diisobutyl 2,2′-(((((1-(6-amino-9H-purin-9-yl)propan-2-yl)oxy)methyl)phosphoryl)bis(azanediyl))(R)-bis(2-methylpropanoate)] gave a CC50 at 5 days [1] of 4.35 µM and a solubility kinetic at 24 h [3] of 54 µg/mL (≈ 94.8 µM).
C[C@H](Cn1cnc2c(N)ncnc21)OCP(=O)(NC(C)(C)C(=O)OCCC12CC(C1)C2)NC(C)(C)C(=O)OCCC12CC(C1)C2 [Example 62, Bis(2-(bicyclo[1.1.1]pentan-1-yl)ethyl) 2,2′-(((((1-(6-amino-9H-purin-9-yl)propan-2-yl)oxy)methyl)phosphoryl)bis(azanediyl))(R)-bis(2-methylpropanoate)] gave a CC50 at 5 days [1] of 3.19 µM, a CC50 at 5 days [2] greater than 0.1 µM and a solubility kinetic at 24 h [3] of less than 1 µg/mL.
